Assay results: US10357468B2, “Medicaments for slowing Parkinson's disease” (BIAL—PORTELA & CA, S.A., priority 2014, dated 2019)

Key:
PD patients = assay: 1-year open label extension of placebo-controlled double-blind trials of opicapone with levodopa and AADC inhibitor (Examples 1A, 1B); format: in vivo, human
[1] = Tolerability in the Example 2 study; details: OPC 25, 50 and 75 mg QD for 11 days

With `Cc1c(Cl)c(C)[n+]([O-])c(Cl)c1-c1noc(-c2cc(O)c(O)c([N+](=O)[O-])c2)n1` [opicapone, 5-[3-(2,5-dichloro-4,6-dimethyl-1-oxy-pyridin-3-yl)-[1,2,4]oxadiazol-5-yl]-3-nitrobenzene-1,2-diol] the “difference in OFF time” value (PD patients; PD patients, at least 12 months post commencement of treatment with opicapone (with levodopa and AADCi), FIG. 1) was “approximately −2.0 hrs”, the “difference in ON time without troublesome dyskinesia” value (PD patients; PD patients, at least 12 months post commencement of treatment with opicapone (with levodopa and AADCi), FIG. 2) was “approximately +1.5 hr” and the “progression of PD” value (PD patients; patients treated with opicapone from an earlier stage compared with groups naïve to opicapone, once a day at bedtime) was “progressed less”. The tolerability profile [1] was “favourable”.
